Where a name gives a salt, the structure may show the parent alone.
Tests used:
[1] = test system: human breast cancer cell BT-474; test: Inhibitory action on breast cancer cell BT-474 proliferation in vitro; assay type: cell-based; details: 120 h, BT-474 cells, cultured for 5 days with compound, SRB protein content
Method: A suspension of human breast cancer cell BT-474 (100 μl (6,000 cells)) were plated in a 96-well microplate and cultured in an incubator (37° C., 5% carbon dioxide). On the following day, 100 μl of a solution of each test compound previously diluted serially in 2-fold, was added, and the cells were cultured for 5 days. After the culture medium containing the test compound was removed, the cells were washed and fixed with 50% trichloroacetic acid, after which a 0.4% (w/v) SRB dye solution (dissolved in 1% acetic acid) was added to stain as well as fix the cell protein (Skehan et al., Journal of the National Cancer Institute, Vol. 82, pp. 1107-1112, 1990). After washing with a 1% acetic acid solution, 100 μl of extract solution (10 mM, Tris buffer) was added to extract the dye and the absorbance was measured at a wavelength of 550 nm to quantify the amount of cells as protein content. Taking as 100% the protein content for the control group, which received no test compound solution, the ratio of the residual protein content for each treatment group was determined, and the compound concentration required to achieve 50% suppression of the residual cell content relative to the control (IC50 value) was calculated.

[2] = molecular target: T1, HER2 intracellular domain (HER2 kinase) (Homo sapiens, UniProt P04626); test: Determination of HER2 kinase inhibitory activity; assay type: biochemical; details: compound at 1.0 μM, poly-Glu:Tyr (4:1) substrate, [γ-32P]ATP, read-out: inhibitory rate (%) at 1.0 μM
T1 construct: made in house; host or cells: SF-21 insect cells infected with recombinant baculovirus BAC-HER2
Method: Human HER2 gene was cloned by RT-PCR using total RNA prepared from MCF7 cells as a template. The primer used for RT-PCR was prepared in consideration of the information of nucleotide sequence (Genbank Accession No. M11730) of HER2 gene by adding a nucleotide sequence encoding DYKDDDD peptide and a restriction enzyme recognition sequence to a nucleotide sequence (corresponding to 2176-3918 of Genbank Accession No. M11730 as a base, 676-1255 amino acids of Genbank Accession No. NP_004439 as a protein) encoding the HER2 intracellular domain region such that the protein contains an N-terminal DYKDDDD peptide tag. The primer nucleotide sequence is shown below.
SF-21 cells were sown at 1×10^6 cells/mL in Sf-900II SFM medium (1 L, Invitrogen) containing 10% fetal bovine serum (trace), 50 mg/L gentamicin (Invitrogen) and 0.1% Pluronic F-68 (Invitrogen), and shaking culture was performed using a 2 L volume Erlenmeyer flask at 27° C., 100 rpm. After culturing for 24 hr, recombinant baculovirus BAC-HER2 (13.4 mL) was added, and the mixture was further cultured for 3 days. The culture medium was centrifuged at 2,000 rpm for 5 min to give virus-infected cells. The infected cells were washed with a phosphate buffered saline (Invitrogen), centrifuged under the same conditions, and the cells were preserved at −80° C. The cryopreserved cells were thawed in ice, suspended in buffer A (50 mM Tris buffer (30 mL, pH 7.4) containing 20% glycerol, 0.15 M NaCl) supplemented with Complete Protease Inhibitor (Boehringer), and ruptured 3 times with a Polytron homogenizer (Kinematica) at 20,000 rpm for 30 sec. The ruptured solution was clarified by centrifugation at 40,000 rpm for 30 min, and filtered with a 0.45 μm filter. The filtrate was passed through a column packed with Anti-FLAG M2 Affinity Gel (4 mL, Sigma-Aldrich) at a flow rate of about 0.5 mL/min. The column was washed with buffer A, and eluted with buffer A containing 100 μg/mL of FLAG peptide. The eluent was concentrated with Vivaspin 20 (Vivascience) having a molecular weight cut off of 30K. The concentrate was purified by gel filtration using Hi Load 16/60 Superdex 200 pg (GE Healthcare Bioscience) equilibrated with buffer A. The fractions containing HER2 intracellular domain were collected and cryopreserved at −80° C.
HER2 kinase reaction was performed using a 96 well plate. As a buffer for kinase reaction, a buffer having a composition of 50 mM Tris-HCl (pH 7.5), 5 mM MnCl2, 2 mM dithiothreitol, 0.01% Tween-20 was used. The compound of the present invention was dissolved in dimethyl sulfoxide (DMSO), and diluted with the kinase reaction buffer so that DMSO concentration would be 0.1% during kinase reaction. This compound solution (10 μL) was mixed with a kinase reaction buffer […] containing HER2 intracellular domain (0.625 μg/mL) obtained in Experimental Example 1B and polypeptide substrate poly-Glu:Tyr (4:1) (Sigma Ltd., 12.5 μg/mL), and the mixture was stood at room temperature for 5 min. Then, a kinase reaction buffer (20 μL) containing 125 μM ATP and 45 μCi/mL [γ-^32P]ATP was added, and the kinase reaction was initiated with 50 μL of the final reaction mixture. A kinase reaction was performed at room temperature for 10 min, and the kinase reaction was quenched by addition of 20% TCA solution (50 μL). The mixture after completion of the reaction was stood at room temperature for 30 min, and acid insoluble fractions in the mixture after completion of the reaction were collected in a 96 well GF/C filter plate (PerkinElmer) using a cell harvester (PerkinElmer). Thereafter, the filter containing the acid insoluble fractions was washed with 3% phosphoric acid solution. After washing, the filter plate was dried at 45° C. for 60 min, and 25 μL of MicroScinti 0 (PerkinElmer) was added. The radioactivity was measured using TopCount (PerkinElmer). HER2 kinase inhibitory rate (%) of the test compound was calculated by the following formula: […]

T1 sequence (P04626 676-1255): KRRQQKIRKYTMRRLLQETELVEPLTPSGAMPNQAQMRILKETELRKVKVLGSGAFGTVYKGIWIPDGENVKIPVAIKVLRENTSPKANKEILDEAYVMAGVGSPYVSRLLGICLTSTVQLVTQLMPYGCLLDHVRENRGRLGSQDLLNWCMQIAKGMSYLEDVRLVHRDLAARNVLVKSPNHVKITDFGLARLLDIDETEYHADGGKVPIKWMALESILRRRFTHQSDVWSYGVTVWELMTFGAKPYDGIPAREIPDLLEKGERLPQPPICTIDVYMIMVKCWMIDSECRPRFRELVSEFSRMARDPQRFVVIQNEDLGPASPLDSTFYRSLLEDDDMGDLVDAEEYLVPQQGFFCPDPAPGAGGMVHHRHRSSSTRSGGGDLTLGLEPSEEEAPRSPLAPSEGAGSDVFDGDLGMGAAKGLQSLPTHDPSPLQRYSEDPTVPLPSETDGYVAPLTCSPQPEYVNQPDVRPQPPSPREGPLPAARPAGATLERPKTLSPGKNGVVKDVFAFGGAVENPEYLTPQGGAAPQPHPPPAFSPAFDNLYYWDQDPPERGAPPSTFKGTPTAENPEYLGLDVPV

SMILES	IC50 [1] [nM]	inhibition at 1 µM [2] [%]
Cn1ccc2ncnc(Nc3ccc(Oc4cccc5[nH]ncc45)c(Cl)c3)c21 [Example 86, N-[3-chloro-4-(1H-indazol-4-yloxy)phenyl]-5-methyl-5H-pyrrolo[3,2-d]pyrimidin-4-amine]	< 100	–
CC(C)(CO)C(=O)NCCn1ccc2ncnc(Nc3ccc(Oc4ccn5ncnc5c4)c(Cl)c3)c21 [Example 166, N-[2-(4-{[3-chloro-4-([1,2,4]triazolo[1,5-a]pyridin-7-yloxy)phenyl]amino}-5H-pyrrolo[3,2-d]pyrimidin-5-yl)ethyl]-3-hydroxy-2,2-dimethylpropanamide]	< 100	–
CC(C)(C)NC(=O)c1cncc(Oc2ccc(Nc3ncnc4ccn(CCO)c34)cc2Cl)c1 [Example 26, N-(tert-butyl)-5-(2-chloro-4-{[5-(2-hydroxyethyl)-5H-pyrrolo[3,2-d]pyrimidin-4-yl]amino}phenoxy)nicotinamide]	< 100	100
CC(C)(CO)C(=O)NCCn1ccc2ncnc(Nc3ccc(Oc4ccn5ccnc5c4)c(Cl)c3)c21 [Example 164, N-[2-(4-{[3-chloro-4-(imidazo[1,2-a]pyridin-7-yloxy)phenyl]amino}-5H-pyrrolo[3,2-d]pyrimidin-5-yl)ethyl]-3-hydroxy-2,2-dimethylpropanamide]	–	100
O=C1Cc2c(cccc2Oc2ccc(Nc3ncnc4ccn(CCO)c34)cc2Cl)N1 [Example 28, 4-(2-chloro-4-{[5-(2-hydroxyethyl)-5H-pyrrolo[3,2-d]pyrimidin-4-yl]amino}phenoxy)-1,3-dihydro-2H-indol-2-one]	< 100	100
CC(C)(C)NC(=O)c1cccc(Oc2ccc(Nc3ncnc4ccn(CCO)c34)cc2Cl)n1 [Example 29, N-(tert-butyl)-6-(2-chloro-4-{[5-(2-hydroxyethyl)-5H-pyrrolo[3,2-d]pyrimidin-4-yl]amino}phenoxy)pyridine-2-carboxamide]	–	100
OCCn1ccc2ncnc(Nc3ccc(Oc4cccc5[nH]ccc45)c(Cl)c3)c21 [Example 10, 2-(4-{[3-chloro-4-(1H-indol-4-yloxy)phenyl]amino}-5H-pyrrolo[3,2-d]pyrimidin-5-yl)ethanol]	< 100	99
OCCn1ccc2ncnc(Nc3ccc(Oc4cccc5sccc45)c(Cl)c3)c21 [Example 83, 2-(4-{[4-(1-benzothiophen-4-yloxy)-3-chlorophenyl]amino}-5H-pyrrolo[3,2-d]pyrimidin-5-yl)ethanol]	–	99
CC(C)(CO)C(=O)NCCn1ccc2ncnc(Nc3ccc(Oc4ccc5ccnn5c4)c(Cl)c3)c21 [Example 159, N-[2-(4-{[3-chloro-4-(pyrazolo[1,5-a]pyridin-6-yloxy)phenyl]amino}-5H-pyrrolo[3,2-d]pyrimidin-5-yl)ethyl]-3-hydroxy-2,2-dimethylpropanamide methanesulfonate]	–	100
CC(C)(CO)C(=O)NCCn1ccc2ncnc(Nc3ccc(Oc4cccc5sccc45)c(Cl)c3)c21 [Example 127, N-[2-(4-{[4-(1-benzothiophen-4-yloxy)-3-chlorophenyl]amino}-5H-pyrrolo[3,2-d]pyrimidin-5-yl)ethyl]-3-hydroxy-2,2-dimethylpropanamide tosylate]	–	99
OCCn1ccc2ncnc(Nc3ccc(Oc4cccc5[nH]ncc45)c(Cl)c3)c21 [Example 95, 2-(4-{[3-chloro-4-(1H-indazol-4-yloxy)phenyl]amino}-5H-pyrrolo[3,2-d]pyrimidin-5-yl)ethanol]	< 100	100
CN1C(=O)Cc2c(Oc3ccc(Nc4ncnc5cc(Cl)n(CCO)c45)cc3Cl)cccc21 [Example 170, 4-(2-chloro-4-{[6-chloro-5-(2-hydroxyethyl)-5H-pyrrolo[3,2-d]pyrimidin-4-yl]amino}phenoxy)-1-methyl-1,3-dihydro-2H-indol-2-one]	–	97
CC(C)(CO)C(=O)NCCn1ccc2ncnc(Nc3ccc(Oc4cccc5sccc45)c(Cl)c3)c21 [Example 114, N-[2-(4-{[4-(1-benzothiophen-4-yloxy)-3-chlorophenyl]amino}-5H-pyrrolo[3,2-d]pyrimidin-5-yl)ethyl]-3-hydroxy-2,2-dimethylpropanamide]	< 100	–
CC(C)(O)CC(=O)NCCn1ccc2ncnc(Nc3ccc(Oc4ccc5ccnn5c4)c(Cl)c3)c21 [Example 147, N-[2-(4-{[3-chloro-4-(pyrazolo[1,5-a]pyridin-6-yloxy)phenyl]amino}-5H-pyrrolo[3,2-d]pyrimidin-5-yl)ethyl]-3-hydroxy-3-methylbutanamide hydrochloride]	< 100	–

Source: patent US20100004238A1, “FUSED HETEROCYCLIC COMPOUND” (TAKEDA PHARMACEUTICAL COMPANY LIMITED, priority 2006, published 2010)
